# Measurements taken from ChEMBL document CHEMBL3507680, “University of Dundee, Gates Library screen for HepG2 cell viability”.
# Assay: Human HepG2 cell viability assay in 384 well format
# Format: toxicity, cell-based
# Set-up: dose 125 nL, time 70.5 hour; concentration not given beside the values
# Conditions: HepG2 cells, read-out: Inhibition
row,SMILES,cytotoxicity at 70.5 h
1,CC1=C(CCN2CC[C@@H](N3CCC(O)CC3)[C@H](O)C2)C(C)(C)CCC1,-5.02%
2,Cc1ccc(C)c(NC(=O)N2C[C@H](N(C)C)C[C@H]2CO)c1,-6.76%
3,COC[C@]1(O)CCN(c2cc(C3CC3)ncn2)CC1(C)C,-10.5%
4,CCc1nc(C)c(C(=O)N(C)Cc2cnc3ccccn23)o1,-7.82%
5,COc1ccc(CCC(=O)N2CCNCC2C(=O)N2CCCC2)cc1 (stereo unspecified),-6.16%
6,CCCc1cc(NCCN2CCNC2=O)n2nccc2n1,-11.5%
7,CC1CCN(S(=O)(=O)N2CCc3c(c(C(=O)O)nn3CC3CC3)C2)CC1,1.09%
8,CCc1nnsc1C(=O)NCCC1CN(C(C)C)CCO1 (stereo unspecified),-7.17%
9,COC(=O)C1CCCCN1C(=O)c1cn(C/C=C/c2ccccc2)nn1 (stereo unspecified),23.4%
10,NCCO[C@H]1C[C@@H](O)C12CCN(C1Cc3ccccc3C1)CC2,34.2%
11,COc1ccccc1[C@@H]1CN(Cc2cnc(N(C)C)nc2)C[C@H]1C(=O)O,-6.22%
12,Cc1ccc2oc(=O)n(CCC(=O)N3CCCC4(CNC(=O)O4)C3)c2c1 (stereo unspecified),-1.82%
13,CCCN1CCCC2(CCN(C(=O)CCCn3cncn3)C2)C1=O (stereo unspecified),-4.88%
14,CCn1ccnc1CN(C)c1cc(C2CCCNC2)nc(C)n1 (stereo unspecified),-1.8%
15,COC[C@@]12CC[C@@H](N3CCOCC3)C[C@H]1CCN(c1nc(CO)cs1)C2,10.8%
16,CCOCc1nc2c(c(N3CC=CC3)n1)CCN(Cc1ccco1)CC2,-3.14%
17,COc1cnc(N2C[C@@H](CN3CCOCC3)C[C@H](CO)C2)nc1,-2.56%
18,CC(C)Oc1ccc(CN2CCC(Cc3nnc(CO)n3C)CC2)cc1,-0.794%
19,Cn1c(CN2CCC(O)CC2)nnc1C1CCCN(c2ccncc2)C1 (stereo unspecified),-9.58%
20,COc1ccc(C(C(=O)O)N(C)Cc2ccon2)cc1Cl (stereo unspecified),-4.56%
21,CCC[C@H]1CN(S(=O)(=O)c2ccc(-c3c(C)noc3C)s2)C[C@@H]1N,-4.66%
22,O=C(CCCn1ccnc1)N[C@H]1CN(C2CCCC2)C[C@@H]1C1CC1,-11.7%
23,COCc1c(C(=O)N2CCCC(N(C)Cc3ccccc3)C2)noc1C (stereo unspecified),-3.62%

row,SMILES,cytotoxicity at 70.5 h
1,Cc1cc(C)n(Cc2cc(C(=O)N3CCCC3c3nccs3)n[nH]2)n1 (stereo unspecified),-13.2%
2,Cn1ncc(N2CCC(CNC3Cc4ccccc4C3)C2)cc1=O (stereo unspecified),3.7%
3,COc1ccccc1OC1CCN(C(=O)c2cnc(C)cc2C)CC1,-5%
4,O=C1CCOCCN1Cc1ccc(Cl)c(F)c1,23.1%
5,COCc1cc(NCc2ccccc2-n2cncn2)ncn1,-10.8%
6,COCc1ncc(CN2CCC3(CCNC(=O)CC3)CC2)cn1,-5.72%
7,CCOC(=O)CC(C)Nc1nc(C(C)(C)C)nc2c1cnn2C (stereo unspecified),22.1%
8,CCCn1ncc(-c2ccnc(NC3CCCc4ccccc43)n2)c1C (stereo unspecified),55.9%
9,O=C1NCCN(Cc2ccoc2)C1CC(=O)N1CCc2sccc2C1 (stereo unspecified),-0.766%
10,CCCS(=O)(=O)N1CCC2(CCC(=O)N(CCc3cccnc3)C2)CC1,-10.9%
11,CCc1nc(C)c([C@H]2CN(C)C[C@@H]2C(=O)NCc2ccccn2)[nH]1,-2.64%
12,COc1ccc(-n2cccn2)c(CN2CCC3(CCCNC3)C2)c1 (stereo unspecified),-7.03%
13,Cc1cc(Cn2cc(C(C)Cc3ccc4c(c3)OCO4)nn2)n[nH]1 (stereo unspecified),-7.62%
14,COc1nc2c(cc1C(=O)N1CCCCC1c1ccccn1)CCC2 (stereo unspecified),-6.36%
15,Cc1cc(NCc2nnc3n2CCC3)n2nc(C)c(C)c2n1,-12.3%
16,O=C(NCCN1CCOC1=O)c1cnc(-c2cccnc2)nc1,-3.86%
17,CC1=C(C(=O)N(C)Cc2noc3c2CCCC3)C(C)NC(=O)N1 (stereo unspecified),-0.0225%
18,c1cc(-c2cscn2)cc(N2CCC(NCCc3cccs3)CC2)c1,0.55%
19,COc1cc(F)c(-n2cnc(CCNC(C)=O)c2)cc1F,-10.8%
20,O=C1CN(Cc2cn(CC3CCN(C4CCSCC4)CC3)nn2)CCN1,20.3%
21,CCC1CN(Cc2nnc(C3CC3)o2)CCC(=O)N1Cc1ccccc1 (stereo unspecified),20.4%
22,Cc1ccc(CN(CCN(C)C)Cc2nc3ccccc3[nH]2)s1,11.2%
23,COCCC1(CO)CCCN(Cc2ccc(C#N)cc2)C1 (stereo unspecified),-1.95%

row,SMILES,cytotoxicity at 70.5 h
1,CSCCCN1C[C@H](NC(=O)c2ccc(C#N)nc2)[C@@H](C2CC2)C1,-0.265%
2,CCc1nc(NC(=O)NCCc2cscn2)nn1C,-4.65%
3,NC(=O)c1ccc(-c2nc3c(c(=O)[nH]2)CCNC3)cc1,-2.1%
4,Cc1noc(C)c1CN1C(=O)[C@H]2CC[C@@H]1CN(Cc1cscn1)C2,-6.64%
5,O=C(NCc1cc2n(n1)CCCN(Cc1ccc(Cl)s1)C2)C1CCC1,-10.1%
6,CC(C)c1cc(C2CCCN2C(=O)CN2C(=O)OC(C)(C)C2=O)no1 (stereo unspecified),-9.43%
7,c1ccc(CCCN2CCCN(c3ncnc4[nH]ccc34)CC2)cc1,-15.3%
8,O=S(=O)(NCc1ccccc1)N1CCCN(c2ccncc2)CC1,28.7%
9,CCC(C)Oc1ccc(CNCCc2c[nH]cn2)cc1Cl (stereo unspecified),24.1%
10,Cc1nn(C)c2nc(N(CCOc3ccccc3)CC3CCCO3)sc12 (stereo unspecified),21%
11,O=C(CCc1ccco1)N1CCc2[nH]nc(COc3ccccc3)c2C1,51.5%
12,CCc1ncc(C(=O)NCC2CCN(Cc3ccncc3)CC2)cn1,-5.64%
13,CN(C)c1ncnc2c1CCN(C(=O)CN1CCCCC1)C2,-7.37%
14,CC(C)CNS(=O)(=O)c1ccc(C(=O)N(C)CCc2cn[nH]c2)cc1,-8.39%
15,CN(CC1(CO)CCC1)C(=O)c1cc(COc2ccccc2F)[nH]n1,-3.92%
16,CN(C)C(C(=O)N1CCN(S(N)(=O)=O)CC1)c1ccccc1F (stereo unspecified),-3.36%
17,O=C1CCC2(CCNCC2)CN1CCCNc1cccnc1,-0.123%
18,CCCn1cc(C(=O)NCCc2ccncc2)c(C)n1,-6.81%
19,COc1c(F)cc(CN2CCCC3(CC2)CNC(=O)O3)cc1Cl (stereo unspecified),5.1%
20,OCC(CO)N1CCC(c2nnc(Cn3ccnc3)n2C2CC2)CC1,12.4%
21,Cc1ccc(CN2CCN(c3ncnc4[nH]cnc34)CC2CCO)cc1 (stereo unspecified),4.25%
22,Cc1noc(C)c1CN1CCCC1c1nc(-c2ccccc2)no1 (stereo unspecified),-2.38%
23,Cc1ccc(C)c2c(O)cc(CNCC(N)=O)nc12,-0.585%

row,SMILES,cytotoxicity at 70.5 h
1,c1cn(CC2CC2)c(C2CCN(CCC3CCOC3)CC2)n1 (stereo unspecified),21.7%
2,CN(C(=O)c1cccnc1)C1CCCN(CCc2ccccc2)C1 (stereo unspecified),-5.02%
3,CC(Oc1ccc2c(c1)OCO2)C(=O)N1CCC(N2CCOCC2)CC1 (stereo unspecified),-2.72%
4,Cc1ccccc1C(=O)NC[C@@H]1CCN(C(=O)c2cccn2C)C[C@H]1O,-13%
5,CCn1ccc(C(=O)N2CCCN(Cc3ccccc3F)CC2)cc1=O,17.5%
6,CCCn1ncc(C(=O)N(C)Cc2n[nH]c3c2CCC3)c1C,-11.7%
7,CCC[C@H]1CN(Cc2cncn2C)C[C@@H]1NC(=O)C1(COC)CCC1,-9.83%
8,O=C(Cc1cccnc1)N1C[C@H]2CC[C@@H]1CN(Cc1ccc(F)cc1)C2,9.62%
9,COc1ccccc1OC1CCN(Cc2cccnc2)CC1,-3.86%
10,Cc1cc(C)c2c(C(=O)N(C)C)cc(-c3cnc(N)nc3)nc2c1,-5.25%
11,CN(C)c1ccc(CN2C[C@H]3CC[C@@H]2CN(C2CCOCC2)C3)cn1,-3.42%
12,c1ccc(Cn2cccn2)c(CN2CCCCC2CCn2ccnc2)c1 (stereo unspecified),0.54%
13,CC(C)(C)NC(=O)N1CCCn2nc(C(=O)Nc3ccccc3)cc2C1,-12.5%
14,Cc1cc(C(=O)N2CC[C@@]3(O)CCN(C(=O)N4CCCC4)C[C@H]3C2)no1,-4%
15,COc1cccc(-c2noc(-c3ccc(N4CC(N)C4)nc3)n2)c1OC,-0.582%
16,CN(C)CC1(O)CCCN(C(=O)Cn2ccc3ccccc32)CC1 (stereo unspecified),29.7%
17,CCC(CO)N(C/C(C)=C/c1ccco1)Cc1ccco1 (stereo unspecified),-3.88%
18,CN(C)CC1(O)CCCN(C(=O)c2ccccc2-n2cccn2)C1 (stereo unspecified),17.7%
19,CCC(Nc1nccc(C2CCCC2)n1)c1ncccc1C (stereo unspecified),14.1%
20,CCn1cc(CN2CCC(CNC(C)=O)CC2)cc1C#N,0.676%
21,CC(C)N1CC2(CCCN(c3ncc(Cl)cc3F)C2)CCC1=O (stereo unspecified),-4.82%
22,CC(=O)N[C@@H]1CN(Cc2cccs2)C[C@H]1c1ccc(C)o1,1.3%
23,Cc1nc(CN2CCCC(CCc3ccccc3C(F)(F)F)C2)no1 (stereo unspecified),-8.94%

row,SMILES,cytotoxicity at 70.5 h
1,CN(C)c1nc(NCc2cccnc2N)ncc1F,0.515%
2,CC(C)CN1CCn2nc(CNc3ncnc4[nH]ccc34)cc2C1,7.26%
3,Cc1ccccc1C(C(=O)NCCn1cccc1)N(C)C (stereo unspecified),-9.04%
4,CC(C)N1CCCCC1CCn1cnc2cc(C(F)(F)F)ccc2c1=O (stereo unspecified),-12.9%
5,CCCN(Cc1ccc(OC)nc1)Cc1ccccc1OC,12.5%
6,CN(C)C(=O)CCC1CCCN(Cc2ccc(-c3cccnc3)cc2)C1 (stereo unspecified),-10.4%
7,O=C(Nc1cccc2c1CCCC2)c1cccc(CN2CC[C@H](O)C2)c1,-4.36%
8,OC1(CN2CCCC2)CCCN(Cc2c[nH]c(CC3CCCC3)n2)C1 (stereo unspecified),-4.13%
9,Cc1n[nH]c(C)c1CCC(=O)N(C)Cc1cn[nH]c1-c1ccc(F)cc1,5.04%
10,CCC(C)CN1CCC(n2cc(C3CCCCC3)nn2)CC1 (stereo unspecified),14.7%
11,FC(F)(F)c1ccc(-n2ccnc2-c2cc3n(n2)CCNC3)cn1,12.7%
12,Cc1noc(CN(C)C(=O)c2n[nH]c(N)c2-c2ccccc2)n1,2.44%
13,Cc1nccn1-c1ccc(N2CCC(NC(C)C(C)C)CC2)cc1 (stereo unspecified),-2%
14,Cc1cc(C(F)(F)F)cc(=O)n1CCCn1cnnn1,-11.2%
15,CCc1ccc(CN(C/C=C/c2ccccc2)CCOC)nc1,-2.77%
16,COC[C@H]1CCC[C@H]1Nc1ncnc2c1CCNCC2,-3.38%
17,O=C(CSCC1CC1)N1CCCN(Cc2ccc(F)cc2)CC1,-11.1%
18,CC(C)Cn1c(=O)n(CCn2cc(Cl)cn2)c2cc(C(=O)O)cnc21,-7.3%
19,c1cc(COC[C@]23COC[C@H]2CN(Cc2ccncc2)C3)ccn1,9.04%
